According to patent US9296698B2, “Amino heteroaryl compounds as beta-secretase modulators and methods of use” (Amgen Inc., priority 2009, dated 2016):
pIC50: −log10 of the molar value. Like-named read-outs stand apart in the source and are kept apart here.

Tests used:
[1] = target: BACE 1 (Beta Secretase enzyme) (Homo sapiens, UniProt P56817); assay: In vitro enzymatic BACE FRET assay; assay type: biochemical
In short: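 BACE activity read by FRET: peptide substrate (50 nM) carrying fluorophore and quencher across the cleavage site, incubated one hour in 0.05 M acetate pH 4.2, 10% DMSO final, 100 uM genapol. Tris addition raises pH to neutrality to stop the reaction before fluorescence is read.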

[2] = system: Aβ40 in conditioned medium of cells stably expressing Amyloid Precursor Protein (APP); assay: In vitro BACE cell-based assay (HEK cell assay), Aβ40 sandwich ELISA; conditions: Homo sapiens
In short: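 Cells stably expressing APP received 10-point compound dilutions (top 100 μM or 10 μM; 0.1% DMSO) for 24 h. Secreted Aβ40 was quantified by sandwich ELISA (pAb40 capture, biotinylated 6E10 detection, europium time-resolved fluorescence). IC50 was derived from percent inhibition versus concentration.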

[3] = IC50 range symbols, Table 1, read-out: BACE 1 FRET assay
[4] = HEK293, 24 h, IC50 range symbols, Table 1, Aβ40, 24 h incubation, read-out: HEK cell assay
[5] = bound stated, read-out: IC50 value in the FRET BACE enzyme assay

Chain of BACE 1 (Beta Secretase enzyme) (P56817 46-501, species assumed): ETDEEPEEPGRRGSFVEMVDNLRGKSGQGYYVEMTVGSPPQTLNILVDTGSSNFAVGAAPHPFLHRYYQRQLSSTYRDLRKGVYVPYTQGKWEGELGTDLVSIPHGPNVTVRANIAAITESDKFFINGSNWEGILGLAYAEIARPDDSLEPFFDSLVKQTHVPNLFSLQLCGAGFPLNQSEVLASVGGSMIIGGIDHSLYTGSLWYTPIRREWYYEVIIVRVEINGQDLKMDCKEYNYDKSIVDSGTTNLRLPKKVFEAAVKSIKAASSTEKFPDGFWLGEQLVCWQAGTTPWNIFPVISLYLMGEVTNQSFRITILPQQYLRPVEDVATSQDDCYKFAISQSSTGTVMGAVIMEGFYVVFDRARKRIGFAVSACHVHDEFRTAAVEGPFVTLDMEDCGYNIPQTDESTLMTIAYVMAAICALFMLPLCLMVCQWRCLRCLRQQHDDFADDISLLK

Structure (SMILES)	pIC50 [1, 3]	pIC50 [2, 4]	pIC50 [1, 5]	pIC50 ([2]; HEK293, bound stated in text, read-out: IC50 value in the BACE cell-based in-vitro assay)
Cc1cccnc1-c1ccc2nc(N)c(CC(C)C(=O)N[C@H](C)C(F)(F)F)cc2c1 (stereo partly drawn) [Example 114, 3-(2-amino-6-(3-methylpyridin-2-yl)quinolin-3-yl)-2-methyl-N-((R)-1,1,1-trifluoropropan-2-yl)propanamide]	5.30 to 6.00	5.30 to 6.00		
CNC(=O)[C@@H](C)Cc1cc2cc(-c3c(C)cccc3C(=O)N3CCCC3)ccc2nc1N [Example 155, (S) 3-(2-amino-6-(2-methyl-6-(pyrrolidine-1-carbonyl)phenyl)quinolin-3-yl)-N,2-dimethylpropanamide]	5.30 to 6.00	5.30 to 6.00		
CCC(Cc1cc2cc(-c3ccccc3C)ccc2nc1N)C(=O)Nc1ccccc1F (stereo not shown) [Example 50, 2-((2-amino-6-o-tolylquinolin-3-yl)methyl)-N-(2-fluorophenyl)butanamide]	> 6.30	< 5.30		
CC(Cc1cc2cc(-c3ncccc3Cl)ccc2nc1N)C(=O)NC[C@H]1CCCCO1 (stereo partly drawn) [Example 83, 3-(2-amino-6-(3-chloropyridin-2-yl)quinolin-3-yl)-2-methyl-N-(((R)-tetrahydro-2H-pyran-2-yl)methyl)propanamide]	> 6.30	5.30 to 6.00		
Cc1ccccc1-c1cc2cc(CCC(=O)NCC3CCCCC3)c(N)nc2cc1F [Example 96, 3-(2-amino-7-fluoro-6-(2-methylphenyl)-3-quinolinyl)-N-(cyclohexylmethyl)propanamide]	> 6.30	5.30 to 6.00	> 7.30	
Cc1ccccc1-c1ccc2nc(N)c(CCC(=O)NCC3CCOCC3)cc2c1 [Example 19, 3-(2-amino-6-o-tolylquinolin-3-yl)-N-((tetrahydro-2H-pyran-4-yl)methyl)propanamide]	> 6.30	5.30 to 6.00		
Cc1cccc(C(=O)N2CCCC2)c1-c1ccc2nc(N)c(CC(C)C(=O)Nc3ccccc3)cc2c1 (stereo not shown) [Example 153, 3-(2-amino-6-(2-methyl-6-(pyrrolidine-1-carbonyl)phenyl)quinolin-3-yl)-2-methyl-N-phenylpropanamide]	> 6.30	> 6.30	> 7.30	> 7.00
Cc1ccccc1-c1ccc2nc(N)c(CCC(=O)NCc3ccn(C)n3)cc2c1 [Example 54, 3-(2-amino-6-o-tolylquinolin-3-yl)-N-((1-methyl-1H-pyrazol-3-yl)methyl)propanamide]	5.30 to 6.00	< 5.30		
